Data reported in the supplement of paper PMC10307832.

Columns and labels:
Assay in all cases: relative viability (nuclei count vs DMSO), 5 days (fraction); higher = more cells survive
AZ23 = compound: CC(C)Oc1cc(Nc2nc(N[C@@H](C)c3ccc(F)cn3)ncc2Cl)n[nH]1 [AZ23]
Procedure, shortened: (§1)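 On vehicle-anchored 1536-well plates, lung cancer cell lines held overnight at 37 °C were pinned with five library-drug doses (not always all listed) spaced by √10. With no medium change over 5 days, they were then fixed, permeabilised and Hoechst-stained in one step and imaged at 4×. MetaXpress counted nuclei, and viability is the median across plates of treated-well over vehicle-well nuclei. Acceptance needed control CV below 25% and at least one doubling.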

Vatalanib = compound: Clc1ccc(Nc2nnc(Cc3ccncc3)c3ccccc23)cc1 [Vatalanib]
Procedure, shortened: as §1

HG-5-88-01 = compound: CC(C)S(=O)(=O)C1=CC=CC=C1NC2=NC(=NC(=C2Cl)N)NC3=C(C=C(C=C3)N4CCC(CC4)C(=O)N)OC [HG-5-88-01]
Procedure, shortened: as §1

[1] = compound: C[C@@H]1CN(CC(=O)Nc2ccc3c(c2)Cc2cccc(-c4cc(=O)cc(N5CCOCC5)o4)c2S3)C[C@H](C)O1
Procedure, shortened: as §1

Embelin = compound: CCCCCCCCCCCC1=C(O)C(=O)C=C(O)C1=O [Embelin]
Procedure, shortened: as §1

Cell Line	relative viability (AZ23; 0.01 µM)	relative viability (AZ23; 0.03162 µM)	relative viability (AZ23; 0.3162 µM)	relative viability (Vatalanib; 0.04 µM)	relative viability (Vatalanib; 0.1265 µM)	relative viability (Vatalanib; 0.4 µM)	relative viability (Vatalanib; 1.265 µM)	relative viability (Vatalanib; 4 µM)	relative viability (HG-5-88-01; 0.04 µM)	relative viability (HG-5-88-01; 0.1265 µM)	relative viability (HG-5-88-01; 0.4 µM)	relative viability (HG-5-88-01; 4 µM)	relative viability ([1]; 0.04 µM)	relative viability ([1]; 0.1265 µM)	relative viability ([1]; 0.4 µM)	relative viability ([1]; 4 µM)	relative viability (Embelin; 0.08 µM)	relative viability (Embelin; 0.8 µM)	relative viability (Embelin; 2.53 µM)	relative viability (Embelin; 8 µM)	relative viability (HG-5-88-01; 1.265 µM)
NCI-H1623	0.984	0.964	0.955	0.963	1.14	1.04	0.879	0.933	1.09	0.979	0.983	0.856	0.942	0.973	1.02	0.957	0.926	0.988	1.06	0.972	–
NCI-H1648	0.794	1.05	0.788	0.958	0.938	0.893	0.889	0.939	0.809	0.728	0.878	0.451	0.871	0.796	1.06	0.757	0.963	1.21	0.92	0.954	0.368
NCI-H1650	0.826	1.17	1.12	1.06	0.851	0.799	0.818	0.851	0.904	0.92	0.812	0.723	0.95	0.999	0.949	0.769	0.994	1.08	0.942	0.877	0.871
NCI-H1651	0.947	1.05	1.05	1.01	0.935	0.955	0.92	0.958	0.994	0.993	0.986	1.07	0.954	0.954	1.03	0.981	0.992	1.03	1.03	0.946	0.976
NCI-H1666	0.988	1.03	0.976	0.958	1.03	1.04	1	0.981	1.03	1.03	0.847	0.864	0.983	1.05	1.03	0.903	0.939	1.06	0.976	1.01	0.869
NCI-H1703	–	0.879	0.943	1.12	0.754	1.14	0.527	0.363	0.778	0.983	0.663	0.954	1.26	0.763	0.797	0.668	0.99	1.79	0.899	0.838	0.941
NCI-H1734	1.03	1.01	0.983	0.977	0.916	1.11	0.95	1.06	0.88	0.978	0.959	1.1	1.01	1.03	1.04	1.12	1.05	1.23	1.19	0.874	0.886
NCI-H1755	1.09	1.05	1.06	1.03	0.959	0.966	0.944	0.99	1.02	1.03	0.99	1.01	1.01	0.986	1.03	1.01	0.986	1.03	1.02	0.892	1.02
NCI-H1792	0.788	1.07	1.1	0.912	0.707	0.861	0.827	0.782	1.01	1.08	1	1.03	0.895	0.8	0.9	0.797	0.924	1.07	1.11	1.06	0.834
NCI-H1793	1.1	1.07	1.07	0.902	0.879	1.07	0.839	0.774	–	0.942	0.985	0.792	1.01	0.866	1.05	0.581	0.918	1.08	1.06	0.431	0.668
NCI-H1915	1.1	1.06	1.01	1.05	0.943	1.01	0.981	0.992	1.03	1.06	1.01	0.745	0.966	0.985	1.01	0.748	1.08	1.07	1.04	0.983	1.13
NCI-H1944	0.971	1.13	1.05	0.987	0.848	1.1	1.01	0.907	0.988	1.01	0.913	0.902	–	0.958	1.03	0.952	1	1.07	1.06	0.961	0.972
NCI-H1975	1.13	1.09	0.971	0.972	0.919	1.01	0.787	0.841	0.951	0.972	0.835	0.454	0.932	0.901	0.935	0.738	1.03	0.959	0.94	1.04	0.844
NCI-H1993	0.926	0.834	0.991	0.818	0.871	0.923	0.748	0.815	0.879	0.998	0.9	0.861	1.07	0.96	0.761	0.938	1.05	0.888	1.05	0.843	0.611
NCI-H2009	1.01	1.1	1.09	1.15	0.928	1.1	0.952	0.98	1.05	1.07	0.931	0.947	1.05	1.01	0.935	0.766	1.01	1.19	0.959	1	0.951
NCI-H2023	–	1.11	1.13	1.02	0.88	1.12	0.893	0.933	1.04	0.958	0.795	0.633	1.04	0.937	0.773	0.681	1	0.926	1.07	0.736	0.725
